From publication PMC6479519, “New Quinoline-Based Heterocycles as Anticancer Agents Targeting Bcl-2” (Molecules, 2019)
Like-named read-outs stand apart in the source and are kept apart here.

Target: T1, His-tagged Bcl-2 (Homo sapiens, UniProt P10415)
T1 construct: gene BCL2; commercial His-tagged Bcl-2 protein (Abcam); tag kept
Assay: competitive ELISA, His-tagged Bcl-2 vs immobilised biotinylated Bim peptide
Format: binding
Conditions: read-out: ELISA IC50 (μM) ^1

[1] = competition with Bim peptide (residues 81–106), 20 nM Bcl-2, PBS, room temperature

T1 sequence (P10415 whole entry): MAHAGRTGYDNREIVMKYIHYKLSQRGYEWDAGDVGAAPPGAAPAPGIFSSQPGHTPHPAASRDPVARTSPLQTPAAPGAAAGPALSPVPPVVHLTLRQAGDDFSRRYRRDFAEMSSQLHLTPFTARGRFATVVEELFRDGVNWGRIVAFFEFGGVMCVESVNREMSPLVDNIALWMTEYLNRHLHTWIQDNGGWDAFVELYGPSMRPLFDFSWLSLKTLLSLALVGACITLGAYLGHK

| SMILES | IC50 | IC50 [1] |
| --- | --- | --- |
| O=[N+]([O-])c1ccc(Nc2nnc(-c3cc(-c4ccc(Br)cc4)nc4ccccc34)o2)cc1 [6d] | 14.5 ± 1.2 µM | – |
| Cc1ccc(Nc2nnc(-c3cc(-c4ccc(Br)cc4)nc4ccccc34)o2)cc1 [6c] | – | 1.93 ± 0.007 µM |
| COc1ccc2nc(-c3ccc(Br)cc3)cc(-c3nnc(Nc4ccc([N+](=O)[O-])cc4)o3)c2c1 [6i] | – | 0.15 ± 0.02 µM |
